Tested on: eIF2-GTP-Met-tRNAi ternary complex
Experiment: Ternary complex assay (dual luciferase, firefly/renilla ratio) in stable KLN-tTA/pBISA-DL(ATF-4) cells; HTS and hit confirmation
Format: cell-based, mouse
Set-up: Activity 10 uM / Activity 2.5 uM / Activity 5 uM: unit not given here
Conditions: confirmed hits of the screen (Table 5); for Activity 2.5 uM: compound at 2.5 uM; for Activity 10 uM: compound at 10 uM; for Activity 5 uM: compound at 5 uM

SMILES: CC(=O)Nc1cccc(/C=C/C=C/c2ccc([N+](=O)[O-])cc2)c1 [Compound 161089]
- Activity 2.5 uM: 1.67
- Activity 10 uM: 3.53

SMILES: CCCN(/C=C/C=C/C=[N+](CCC)CCC)CCC.[O-][Cl+3]([O-])([O-])[O-] [Compound 161504]
- Activity 5 uM: 2.6
- Activity 10 uM: 5.3

SMILES: C=C1N(c2cc3ccccc3o2)C(=O)OC12CCCCC2 [Compound 162375]
- Activity 2.5 uM: 1.7
- Activity 10 uM: 3.07

SMILES: Cc1ccc2nc(-c3ccccc3N)[nH]c2c1 [Compound 163454]
- Activity 5 uM: 2.2
- Activity 10 uM: 3.5

SMILES: Cl.c1ccc2c(c1)Cn1c-2nc2ccccc21 [Compound 163482]
- Activity 2.5 uM: 1.588
- Activity 10 uM: 3.207

SMILES: O=C1c2ccccc2-c2nc3cc4ccccc4cc3nc21 [Compound 163547]
- Activity 2.5 uM: 3.27
- Activity 10 uM: 4.38

SMILES: [Hg+][c]1ccccc1.[O-]B(O)O [Compound 163948]
- Activity 2.5 uM: 5.67

SMILES: CCc1ccc(NC(=O)Nc2cccc(Cl)c2)cc1 [Compound 164212]
- Activity 2.5 uM: 2.04
- Activity 10 uM: 4.07

SMILES: Cc1cccnc1.Cc1cccnc1.Cc1cccnc1.Cc1cccnc1.[Cl-].[Cl][Rh-][Cl] [Compound 165688]
- Activity 5 uM: 17.91
- Activity 10 uM: 14.6965

SMILES: Clc1ccc(Cl)c(NNc2cc(Cl)ccc2Cl)c1 [Compound 165765]
- Activity 2.5 uM: 1.34
- Activity 10 uM: 4.44

SMILES: C(=C(\C[P+](c1ccccc1)(c1ccccc1)c1ccccc1)c1ccccc1)/c1ccccc1 [Compound 167334]
- Activity 5 uM: 11.387
- Activity 10 uM: 12.373

SMILES: Oc1ccc2ccccc2c1/C=N/Nc1ccc2ccccc2n1 [Compound 168465]
- Activity 5 uM: 2.2
- Activity 10 uM: 6

SMILES: N#Cc1c(F)c(F)c(Oc2c(F)c(F)c(F)c(F)c2F)c(F)c1Oc1c(F)c(F)c(F)c(F)c1F [Compound 168745]
- Activity 2.5 uM: 0.39
- Activity 10 uM: 36.37

SMILES: NNC(=S)N/N=C/c1ccc([N+](=O)[O-])s1 [Compound 170334]
- Activity 2.5 uM: 0.98
- Activity 10 uM: 4.45

SMILES: N#CC(C#N)=C/C=C/C=C/c1c(Cl)cccc1Cl [Compound 170444]
- Activity 2.5 uM: 0.66
- Activity 10 uM: 12.56

SMILES: CC(C)c1ccc(N=Nc2ccc(N(C)C)cc2)cc1 [Compound 170582]
- Activity 2.5 uM: 3.72
- Activity 10 uM: 4.44

SMILES: CN(C)c1ccc(N=Nc2ccc(Cl)c(Cl)c2)cc1 [Compound 170589]
- Activity 2.5 uM: 3.81
- Activity 10 uM: 6.57

SMILES: CN(C)c1ccc(N=Nc2ccncc2)cc1 [Compound 170600]
- Activity 2.5 uM: 2.21
- Activity 10 uM: 3.46

SMILES: c1ccc(N=Nc2n[nH]c3ccccc23)cc1 [Compound 170633]
- Activity 2.5 uM: 5.12
- Activity 10 uM: 8.99

SMILES: Cc1cnccc1N=Nc1ccc(N(C)C)cc1 [Compound 170639]
- Activity 2.5 uM: 3.93
- Activity 10 uM: 5.38

SMILES: Nc1cccc2scnc12 [Compound 170680]
- Activity 5 uM: 2.7
- Activity 10 uM: 6.8

SMILES: Oc1cccc(C2=NNC(c3cccc(O)c3)=NN2)c1 [Compound 171129]
- Activity 2.5 uM: 5.1
- Activity 10 uM: 7.98

SMILES: Oc1ccc(-c2nnc(-c3ccccc3)nn2)cc1 [Compound 171134]
- Activity 2.5 uM: 2.89
- Activity 10 uM: 3.68

SMILES: COC1/C=C/OC2(C)Oc3c(C)c(O)c4c(O)c(c(C=NN5CCCCCCCC5)c(O)c4c3C2=O)NC(=O)/C(C)=C/C=C/C(C)C(O)C(C)C(O)C(C)C(OC(C)=O)C1C (centres unmarked) [Compound 172656]
- Activity 5 uM: 1.6
- Activity 10 uM: 3.9

SMILES: O=C(Nc1cccc(Cl)c1)NC1CCC(CC2CCCCC2)CC1.O=C(Nc1cccc(Cl)c1)NC1CCC(CC2CCCCC2)CC1 (centres unmarked) [Compound 172879]
- Activity 2.5 uM: 1.11
- Activity 10 uM: 3.6

SMILES: CC(C)(C)C1CCC(NC(=O)C(Cl)Cl)CC1.CC(C)(C)C1CCC(NC(=O)C(Cl)Cl)CC1 (centres unmarked) [Compound 173000]
- Activity 2.5 uM: 0.61
- Activity 10 uM: 3.68

SMILES: CO[C@H]1/C=C/O[C@@]2(C)Oc3c(C)c(O)c4c(O)c(c(/C=N/N5CCN(Cc6cccc(C(F)(F)F)c6)CC5)c(O)c4c3C2=O)NC(=O)/C(C)=C\C=C\[C@H](C)[C@H](O)[C@@H](C)[C@@H](O)[C@@H](C)[C@H](OC(C)=O)[C@@H]1C [Compound 173710]
- Activity 2.5 uM: 0.83
- Activity 10 uM: 16.35

SMILES: Cc1ccc(-c2nc(C#N)c(C#N)nc2-c2ccc(C)cc2)cc1 [Compound 174794]
- Activity 5 uM: 24.857
- Activity 10 uM: 33.869

SMILES: Oc1ccc(-c2nnc(-c3ccc(O)cc3)nn2)cc1 [Compound 174877]
- Activity 2.5 uM: 3.04
- Activity 10 uM: 3.29

SMILES: [CH3][Hg][O]C(C)=O [Compound 176145]
- Activity 2.5 uM: 3.81

SMILES: CS(=O)(=O)c1ccc(/C=C2\C=Cc3ccccc32)cc1 [Compound 176657]
- Activity 2.5 uM: 1.67
- Activity 10 uM: 4.64

SMILES: FC(F)(F)c1cccc(-c2nc3nc(Cl)c(Cl)nc3[nH]2)c1 [Compound 177407]
- Activity 5 uM: 16.53
- Activity 10 uM: 21.876

SMILES: CCC[CH2][Sn]([CH2]CCC)([CH2]CCC)[n]1ccnc1 [Compound 179739]
- Activity 2.5 uM: 0.98
- Activity 10 uM: 3.62

SMILES: CCCCC[CH2][Sn]([CH2]CCCCC)([CH2]CCCCC)[NH]S(=O)(=O)c1ccc(C)cc1 [Compound 179762]
- Activity 2.5 uM: 0.72
- Activity 10 uM: 18.35

SMILES: Clc1nn2nnnc2c2ccccc12 [Compound 179944]
- Activity 2.5 uM: 0.54
- Activity 10 uM: 6.1

SMILES: Cc1cc(C)nc(NC(=S)N/N=C/c2ccccn2)n1 [Compound 185066]
- Activity 5 uM: 44.91
- Activity 10 uM: 20.339

SMILES: N#Cc1nc2c3ccccc3c(N=NC(=N)N[N+](=O)[O-])c-2[nH]c1C#N [Compound 186256]
- Activity 5 uM: 3.212
- Activity 10 uM: 3.71

SMILES: N#Cc1nc2c3ccccc3c(N=NC(N)=S)c-2[nH]c1C#N [Compound 186257]
- Activity 5 uM: 49.982
- Activity 10 uM: 59.966

SMILES: CC(/C=N/O)=N\O.CC(/C=N/O)=N\O.[Pd] [Compound 186948]
- Activity 5 uM: 4.507
- Activity 10 uM: 4.4425

SMILES: COc1ccc(NC(=O)Nc2ccccc2Cl)c(Cl)c1 [Compound 191346]
- Activity 5 uM: 3.018
- Activity 10 uM: 4.4055

SMILES: O=C(/C=C/c1ccccc1)Nc1ccc(Cl)c(Cl)c1 [Compound 191395]
- Activity 5 uM: 3.609
- Activity 10 uM: 7.0185

SMILES: CC12CC3CC(C)(C1)CC(SCCN=C(N)CCl)(C3)C2.Cl [Compound 193484]
- Activity 2.5 uM: 1.24
- Activity 10 uM: 22.72

SMILES: N#Cc1nc2c(nc1C#N)-c1ccccc1/C2=C1/C(=O)Cc2ccccc21 [Compound 193713]
- Activity 2.5 uM: 0.55
- Activity 10 uM: 24.26

SMILES: CCC[CH2][Sn]1([CH2]CCC)[O]CC2(CCCCC2)C[O]1 [Compound 194646]
- Activity 2.5 uM: 8.08
- Activity 10 uM: 6.24

SMILES: C=C1CC2(OC1=O)C(=O)N(C)c1ccccc12 (centres unmarked) [Compound 194807]
- Activity 2.5 uM: 1.72
- Activity 10 uM: 3.45

SMILES: COc1ccc(NC(=S)Nc2ccccc2S)cc1 [Compound 201570]
- Activity 2.5 uM: 2.16
- Activity 10 uM: 3.02

SMILES: C/C(=N\N=C(/C)c1ccc(F)cc1)c1ccc(F)cc1 [Compound 202060]
- Activity 5 uM: 3.63
- Activity 10 uM: 5.049

SMILES: CCS(=O)(=O)/C=C/c1ccc2ccccc2n1 [Compound 202491]
- Activity 2.5 uM: 0.5
- Activity 10 uM: 3.05

SMILES: CCCC[CH2][Sn]([CH2]CCCC)[CH2]CCCC.CCCC[CH2][Sn]([CH2]CCCC)[CH2]CCCC [Compound 202674]
- Activity 2.5 uM: 4.67

SMILES: CCC[CH2][Sn]([C]#[C][Sn]([CH2]CCC)([CH2]CCC)[CH2]CCC)([CH2]CCC)[CH2]CCC [Compound 203205]
- Activity 2.5 uM: 3.12

SMILES: C(=P(c1ccccc1)(c1ccccc1)c1ccccc1)[P+](c1ccccc1)(c1ccccc1)c1ccccc1.[Br-].[Br-].[Cu+] [Compound 203423]
- Activity 2.5 uM: 7.7
- Activity 10 uM: 3.09

SMILES: O=C(Nc1ccc(Cl)c(Cl)c1)c1ccc(Cl)cc1 [Compound 204163]
- Activity 2.5 uM: 2.44
- Activity 10 uM: 4.83

SMILES: Cc1cc(Cl)c(Cl)cc1NC(=O)c1ccc(Cl)cc1Cl [Compound 204246]
- Activity 2.5 uM: 1.92
- Activity 10 uM: 3.49

SMILES: COc1ccccc1C(=O)N/N=C\c1ccc(Cl)cc1Cl [Compound 204386]
- Activity 5 uM: 5.252
- Activity 10 uM: 6.0225

SMILES: CN(C)c1ccc(N=Nc2cccc([N+](=O)[O-])c2)cc1 [Compound 204512]
- Activity 2.5 uM: 2.67
- Activity 10 uM: 4.16

SMILES: Cc1ccc(N=Nc2ccc(N(C)C)cc2)cc1 [Compound 204514]
- Activity 2.5 uM: 3.6
- Activity 10 uM: 4.66

SMILES: CN(C)c1ccc(N=Nc2cccc(Cl)c2)cc1 [Compound 204515]
- Activity 2.5 uM: 2.84
- Activity 10 uM: 5.31

SMILES: O=C(Nc1ccc2ccccc2c1)c1ccccc1Cl [Compound 204548]
- Activity 2.5 uM: 2.82
- Activity 10 uM: 3.99

SMILES: CSc1ccc(NC(=O)c2ccc(Cl)cc2Cl)cc1 [Compound 204668]
- Activity 5 uM: 5.386
- Activity 10 uM: 4.923

SMILES: O=C(COc1ccc(Cl)cc1)Nc1nccs1 [Compound 204716]
- Activity 2.5 uM: 2.2
- Activity 10 uM: 3.01

SMILES: CCc1ccc(NC(=O)Nc2ccc(Cl)c(Cl)c2)cc1 [Compound 204750]
- Activity 2.5 uM: 3.53
- Activity 10 uM: 24.26

SMILES: O=C(Nc1ccc(Cl)c(Cl)c1)OCC1CC2C=CC1C2 (centres unmarked) [Compound 204751]
- Activity 2.5 uM: 2.91
- Activity 10 uM: 4.76

SMILES: CCOC(=O)C1CCc2c(ccc3ccccc23)N1 (centres unmarked) [Compound 204931]
- Activity 5 uM: 3.1
- Activity 10 uM: 3.539

SMILES: O=C(Nc1ccc2ccccc2c1)c1ccc(Cl)cc1 [Compound 205530]
- Activity 2.5 uM: 3.08
- Activity 10 uM: 3.34

SMILES: O=C(Nc1ccc(Br)cc1)OCC1CC2C=CC1C2 (centres unmarked) [Compound 205545]
- Activity 2.5 uM: 2.41
- Activity 10 uM: 4.54

SMILES: O=C(Nc1ccccc1F)C(Br)C(Br)c1ccccc1 (centres unmarked) [Compound 205548]
- Activity 2.5 uM: 2.94
- Activity 10 uM: 4.01
